Measurements taken from ChEMBL document CHEMBL4152312, “Identification of fused pyrimidines as interleukin 17 secretion inhibitors” (Eur J Med Chem, 2018).
pIC50: −log10 of the molar value.

Assays:
PBMC [1] = assay: Inhibition of IL-17 secretion in anti-human CD3 antibody/anti-human CD28 antibody/IL23-stimulated human PBMC after 48 hrs by ELISA; format: functional, cell-based
PBMC [2] = assay: Cytotoxicity against human PBMC assessed as induction of cell death by cell Titer-Glo assay; format: cell-based
PBMC [3] = assay: Inhibition of IL-5 secretion in anti-human CD3 antibody/anti-human CD28 antibody/IL23-stimulated human PBMC after 48 hrs by ELISA; format: functional, cell-based

SMILES | pIC50 (PBMC [1]) | pIC50 (PBMC [2]) | pIC50 (PBMC [3])
Cn1cc(-c2cccc(O)c2)c2c(N[C@H](CO)c3ccccc3)ncnc21 | 5.55 | < 5.00 | –
COc1cccc(OC)c1-c1cc2c(N[C@H](C)c3ccccc3)ncnc2[nH]1 | 5.38 | < 5.00 | 5.60
NC(=O)CC(Nc1ncnc2sc(-c3ccc(CO)cc3)cc12)c1ccccc1 (centres undefined) | 5.48 | < 5.00 | –
COc1ccc(-c2cc3c(N[C@H](CO)c4ccccc4)ncnc3s2)cc1 | < 5.00 | – | –
COc1ccc(-c2cc3c(N[C@H](CCO)c4ccccc4)ncnc3s2)cc1 | < 5.00 | – | –
OCc1ccc(-c2cc3c(Nc4cccc(OCc5ccccc5)c4)ncnc3[nH]2)cc1 | 5.66 | < 5.00 | –
COc1cc(CO)ccc1-c1cc2c(N[C@H](CO)c3ccccc3)ncnc2[nH]1 | 5.49 to 5.51 | < 4.52 | 5.46 to 5.64
COc1cc(CO)ccc1-c1cc2c(Nc3ccc(OCc4cccc(F)c4)c(Cl)c3)ncnc2s1 | 5.05 | 4.55 | < 4.52
Fc1ccc(-c2cc3c(Nc4cccc(OCc5ccccc5)c4)ncnc3[nH]2)cc1 | < 5.00 | – | –
Cc1cc(C)c(-c2cc3c(N[C@H](C)c4ccccc4)ncnc3s2)c(C)c1 | < 5.00 | – | –
C=Cc1ccc(-c2cc3c(N[C@H](C)c4ccccc4)ncnc3s2)cc1 | < 5.00 | – | –
COc1cccc(OC)c1-c1cc2c(N[C@H](CO)c3ccccc3)ncnc2s1 | 5.15 | < 4.52 | –
C[C@@H](Nc1ncnc2sc(-c3ccccc3)cc12)c1ccccc1 | < 5.00 | – | –
CC(Nc1ncnc2[nH]c(-c3ccc(CO)cc3)cc12)C12CC3CC(CC(C3)C1)C2 (centres undefined) | 5.30 | < 5.00 | –
CS(=O)(=O)CCNCc1ccc(-c2ccc3ncnc(Nc4ccc(OCc5cccc(F)c5)c(Cl)c4)c3c2)o1 [LAPATINIB] | – | 4.55 | –
CN(C)CCn1cc(-c2ccc(CO)cc2)c2c(N[C@H](CO)c3ccccc3)ncnc21 | < 5.00 | – | –
OCc1ccc(-c2cc3c(Nc4ccc(OCc5cccc(F)c5)c(Cl)c4)ncnc3[nH]2)cc1 | < 5.00 | – | –
COc1ccc(-c2cc3c(N[C@H](C)C4CCCCC4)ncnc3s2)cc1 | < 5.00 | – | –
Oc1cccc(-c2c[nH]c3ncnc(Nc4ccc(OCc5cccc(F)c5)c(Cl)c4)c23)c1 | < 5.00 | – | –
Fc1ccc(-c2cc3c(Nc4cccc(OCc5ccccc5)c4)ncnc3s2)cc1 | < 5.00 | – | –

SMILES | pIC50 (PBMC [1]) | pIC50 (PBMC [2]) | pIC50 (PBMC [3])
COc1cccc(-c2cc3c(N[C@H](C)c4ccccc4)ncnc3s2)c1OC | < 5.00 | – | –
C[C@@H](Nc1ncnc2[nH]cc(-c3ccc(F)c(CNCCN(C)C)c3)c12)c1ccccc1 | 5.30 | < 5.00 | –
Oc1ccc(-c2cc3c(OC(c4ccccc4)C(F)(F)F)ncnc3s2)cc1 (centres undefined) | < 5.00 | – | –
COc1cc(CO)ccc1-c1cc2c(N[C@H](CO)c3ccc(F)cc3)ncnc2[nH]1 | 5.51 | < 5.00 | –
COc1ccc(-c2cc3c(NC(CC(N)=O)c4ccccc4)ncnc3s2)cc1 (centres undefined) | 5.40 | < 4.52 | 5.10 to 5.12
Oc1cccc(-c2cc3c(OC(c4ccccc4)C(F)(F)F)ncnc3s2)c1 (centres undefined) | < 5.00 | – | –
COc1cc(F)ccc1-c1cc2c(N[C@H](CO)c3ccccc3)ncnc2[nH]1 | 5.37 to 5.39 | < 5.00 | 5.96
Oc1ccccc1-c1cc2c(OC(c3ccccc3)C(F)(F)F)ncnc2s1 (centres undefined) | < 5.00 | – | –
COc1ccc(-c2cc3c(N[C@@H](C)CO)ncnc3s2)cc1 | < 5.00 | – | –
C[C@@H](Nc1ncnc2[nH]cc(-c3ccc(F)c(CO)c3)c12)c1ccccc1 | 5.51 | < 5.00 | –
CN(C)CCn1cc(-c2ccc(F)c(CO)c2)c2c(N[C@H](CO)c3ccccc3)ncnc21 | < 5.00 | – | –
CC(C)c1cc(C(C)C)c(-c2cc3c(N[C@H](C)c4ccccc4)ncnc3s2)c(C(C)C)c1 | < 5.00 | – | –
COc1cc(CO)ccc1-c1cc2c(N[C@H](CO)c3ccccc3)ncnc2s1 | 5.34 | < 4.52 | 4.85
CC(CO)Nc1ncnc2c1c(-c1cccc(O)c1)cn2CCN(C)C (single isomer, unassigned) | < 5.00 | – | –
OCc1ccc(-c2cc3c(Nc4cccc(OCc5ccccc5)c4)ncnc3s2)cc1 | < 5.00 | – | –
CN(C)CCn1cc(-c2ccc(O)cc2)c2c(N[C@H](CO)c3ccccc3)ncnc21 | < 5.00 | – | –
CN(C)CCn1cc(-c2cccc(O)c2)c2c(N[C@H](CO)c3ccccc3)ncnc21 | < 5.00 | – | –
COc1ccccc1-c1cc2c(N[C@H](C)c3ccccn3)ncnc2s1 | < 5.00 | – | –
Fc1ccc(Nc2ncnc3sc(-c4ccc(Br)cc4)cc23)cc1Cl | < 5.00 | – | –
